From patent US7070811B2, “Directly compressible formulations of azithromycin” (Pfizer Inc., priority 2001, dated 2006)

Experiments:
[1] = Indices of Tableting Performance (Hiestand and Smith); type: physicochemical; settings: bulk azithromycin; for Brittle Fracture Index (BFI): Lots 1, 2 and 4 milled (Fitzmill, 0.027" screen, knives, high speed) for this test; for Strain Index (SI) / Tensile Strength / Worst Case Bonding Index (BLw) × 10^2: Lots 1, 2 and 4 milled for this test
Procedure: Indices of tableting performance, for several azithromycin forms, were assessed to identify any mechanical deficiencies or attributes that may affect the ability to develop a direct compression tablet formulation of azithromycin. This assessment was performed in accordance with the procedures described in “Indices of Tableting Performance” H. E. N. Hiestand and D. P. Smith, Powder Technology 38 [1984] pp. 145–159.
More specifically, the Brittle Fracture Index, BFI, was calculated from the ratio of a material's regular tensile strength to its compromised tensile strength. Strain Index, SI, was determined from the dynamic indentation hardness test. Worst Case Bonding Index was determined by assessing the extent of particle bonding remaining after decompression assuming a very short compression dwell time and a plastic mechanism of particle separation during decompression.
Bulk azithromycin lots 1, 2, 4, 7, 10 and 11 are different crystalline forms, respectively, forms N, M, G, A, F and J. Lots 1, 2 and 4 were milled with a Fitzmill (Model JT, The Fitzpatrick Co., Elmhurst, Ill.) using a 0.027″ screen and knives at high speed in an attempt to match the smaller particle size of Lot 7. Lots 10 and 11 were evaluated as is due to their relatively small particle sizes.

[2] = Carr's Compressibility Index from initial and tapped density; type: physicochemical; settings: for Carr's Index: blend with ˜60% drug loading
Procedure: Carr's Compressibility Index is a simple test to evaluate flowability by comparing both the initial and final (tapped) densities and the rate of packing down. A useful empirical guide to flow is given by Carr's compressibility index: Compressibility Index(%)=[(tapped density−initial density)/tapped density]×100
Carr's Compressibility Index of the azithromycin bulk was measured by taking an initial density of a 15 gram sample in a 100 ml graduated cylinder. The sample was tapped 2000 times on a VanKel Tap Density Tester (Model 50-1200, Edison, N.J.) and the tapped density of the 15 gram sample in the 100 ml graduated cylinder was taken. The procedure is described in Int. J. Pharm. Tech. & Prod. Mfr., 6(3) 10–16, 1985.
The ingredients were weighed (except for the magnesium stearate), combined and blended in a low shear blender for 30 minutes. The blend was passed through a U.S. standard No. 20 or No. 25 mesh screen to delump the blend. The screened blend was returned to the blender and blended for an additional 30 minutes. Prior to the addition of the magnesium stearate, the initial and tapped densities of the blend were determined from which a Carr's Compressibility Index for flow was calculated for the blend. Magnesium stearate was then added to the blend, after which it was blended for an additional five minutes.

With `CC[C@H]1OC(=O)[C@H](C)[C@@H](O[C@H]2C[C@@](C)(OC)[C@@H](O)[C@H](C)O2)[C@H](C)[C@@H](O[C@@H]2O[C@H](C)C[C@H](N(C)C)[C@H]2O)[C@](C)(O)C[C@@H](C)CN(C)[C@H](C)[C@@H](O)[C@]1(C)O` [Lot 7, azithromycin] the “Brittle Fracture Index (BFI)” value ([1]; listed as #7 Form A) was 0.10, the “Strain Index (SI)” value ([1]; listed as #7 Form A) was 0.0044 and the “Tensile Strength” value ([1]; listed as #7 Form A) was 0.99 Mpa. For the same compound, the “Worst Case Bonding Index (BLw) × 10^2” value ([1]; listed as #7 Form A) was 0.9.

In the case of `CC[C@H]1OC(=O)[C@H](C)[C@@H](O[C@H]2C[C@@](C)(OC)[C@@H](O)[C@H](C)O2)[C@H](C)[C@@H](O[C@@H]2O[C@H](C)C[C@H](N(C)C)[C@H]2O)[C@](C)(O)C[C@@H](C)CN(C)[C@H](C)[C@@H](O)[C@]1(C)O` [Lot 4, azithromycin], the “Strain Index (SI)” value ([1]; listed as #4 Form G) is reported as 0.0043, the “Tensile Strength” value ([1]; listed as #4 Form G) is reported as 1.03 Mpa and the “Worst Case Bonding Index (BLw) × 10^2” value ([1]; listed as #4 Form G) is reported as 0.8.

In the case of `CC[C@H]1OC(=O)[C@H](C)[C@@H](O[C@H]2C[C@@](C)(OC)[C@@H](O)[C@H](C)O2)[C@H](C)[C@@H](O[C@@H]2O[C@H](C)C[C@H](N(C)C)[C@H]2O)[C@](C)(O)C[C@@H](C)CN(C)[C@H](C)[C@@H](O)[C@]1(C)O` [Lot 1, azithromycin], the “Brittle Fracture Index (BFI)” value ([1]; listed as #1 Form N) is reported as 0.05, the “Strain Index (SI)” value ([1]; listed as #1 Form N) is reported as 0.0044 and the “Tensile Strength” value ([1]; listed as #1 Form N) is reported as 0.75 Mpa. The “Worst Case Bonding Index (BLw) × 10^2” value ([1]; listed as #1 Form N) was 0.7.

With `CC[C@H]1OC(=O)[C@H](C)[C@@H](O[C@H]2C[C@@](C)(OC)[C@@H](O)[C@H](C)O2)[C@H](C)[C@@H](O[C@@H]2O[C@H](C)C[C@H](N(C)C)[C@H]2O)[C@](C)(O)C[C@@H](C)CN(C)[C@H](C)[C@@H](O)[C@]1(C)O` [Lot 8, azithromycin] the “Carr's Index” value [2] was 37.

In the case of `CC[C@H]1OC(=O)[C@H](C)[C@@H](O[C@H]2C[C@@](C)(OC)[C@@H](O)[C@H](C)O2)[C@H](C)[C@@H](O[C@@H]2O[C@H](C)C[C@H](N(C)C)[C@H]2O)[C@](C)(O)C[C@@H](C)CN(C)[C@H](C)[C@@H](O)[C@]1(C)O` [Lot 10, azithromycin], the “Carr's Index” value [2] is reported as 34, the “Brittle Fracture Index (BFI)” value ([1]; listed as #10 Form F) is reported as 0.37 and the “Strain Index (SI)” value ([1]; listed as #10 Form F) is reported as 0.0041. For the same compound, the “Tensile Strength” value ([1]; listed as #10 Form F) was 1.62 Mpa and the “Worst Case Bonding Index (BLw) × 10^2” value ([1]; listed as #10 Form F) was 0.9.

For `CC[C@H]1OC(=O)[C@H](C)[C@@H](O[C@H]2C[C@@](C)(OC)[C@@H](O)[C@H](C)O2)[C@H](C)[C@@H](O[C@@H]2O[C@H](C)C[C@H](N(C)C)[C@H]2O)[C@](C)(O)C[C@@H](C)CN(C)[C@H](C)[C@@H](O)[C@]1(C)O` [Lot 11, azithromycin], the “Brittle Fracture Index (BFI)” value ([1]; listed as #11 Form J) was 0.11, the “Strain Index (SI)” value ([1]; listed as #11 Form J) was 0.0043 and the “Tensile Strength” value ([1]; listed as #11 Form J) was 0.69 Mpa. For the same compound, the “Worst Case Bonding Index (BLw) × 10^2” value ([1]; listed as #11 Form J) was 0.7.

For `CC[C@H]1OC(=O)[C@H](C)[C@@H](O[C@H]2C[C@@](C)(OC)[C@@H](O)[C@H](C)O2)[C@H](C)[C@@H](O[C@@H]2O[C@H](C)C[C@H](N(C)C)[C@H]2O)[C@](C)(O)C[C@@H](C)CN(C)[C@H](C)[C@@H](O)[C@]1(C)O` [Lot 2, azithromycin], the “Brittle Fracture Index (BFI)” value ([1]; listed as #2 Form M) was 0.10, the “Strain Index (SI)” value ([1]; listed as #2 Form M) was 0.0048 and the “Tensile Strength” value ([1]; listed as #2 Form M) was 0.79 Mpa. The “Worst Case Bonding Index (BLw) × 10^2” value ([1]; listed as #2 Form M) was 1.0.

For `CC[C@H]1OC(=O)[C@H](C)[C@@H](O[C@H]2C[C@@](C)(OC)[C@@H](O)[C@H](C)O2)[C@H](C)[C@@H](O[C@@H]2O[C@H](C)C[C@H](N(C)C)[C@H]2O)[C@](C)(O)C[C@@H](C)CN(C)[C@H](C)[C@@H](O)[C@]1(C)O` [Lot 6, azithromycin], the “Carr's Compressibility Index” value ([2]; blend of 59.3 wt % azithromycin without glidant) was 30.
